ChEMBL document CHEMBL4017480, “Discovery and optimization of selective FGFR4 inhibitors via scaffold hopping” (Bioorg Med Chem Lett, 2017)

Tests used:
Cytochrome P450 2C9 = Cytochrome P450 2C9 (Homo sapiens, UniProt P11712); test: Inhibition of CYP2C9 in human liver microsomes using diclofenac as substrate pretreated for 10 mins followed by substrate addition measured after 10 mins in presence of NADPH by LC-MS/MS method; assay type: ADME
Cytochrome P450 2D6 = Cytochrome P450 2D6 (Homo sapiens, UniProt P10635); test: Inhibition of CYP2D6 in human liver microsomes using dextromethorphan as substrate pretreated for 10 mins followed by substrate addition measured after 10 mins in presence of NADPH by LC-MS/MS method; assay type: ADME
Cytochrome P450 1A2 = target: T1, Cytochrome P450 1A2 (Homo sapiens, UniProt P05177); test: Inhibition of CYP1A2 in human liver microsomes using phenacetin as substrate pretreated for 10 mins followed by substrate addition measured after 10 mins in presence of NADPH by LC-MS/MS method; assay type: ADME
T1 sequence (P05177 whole entry): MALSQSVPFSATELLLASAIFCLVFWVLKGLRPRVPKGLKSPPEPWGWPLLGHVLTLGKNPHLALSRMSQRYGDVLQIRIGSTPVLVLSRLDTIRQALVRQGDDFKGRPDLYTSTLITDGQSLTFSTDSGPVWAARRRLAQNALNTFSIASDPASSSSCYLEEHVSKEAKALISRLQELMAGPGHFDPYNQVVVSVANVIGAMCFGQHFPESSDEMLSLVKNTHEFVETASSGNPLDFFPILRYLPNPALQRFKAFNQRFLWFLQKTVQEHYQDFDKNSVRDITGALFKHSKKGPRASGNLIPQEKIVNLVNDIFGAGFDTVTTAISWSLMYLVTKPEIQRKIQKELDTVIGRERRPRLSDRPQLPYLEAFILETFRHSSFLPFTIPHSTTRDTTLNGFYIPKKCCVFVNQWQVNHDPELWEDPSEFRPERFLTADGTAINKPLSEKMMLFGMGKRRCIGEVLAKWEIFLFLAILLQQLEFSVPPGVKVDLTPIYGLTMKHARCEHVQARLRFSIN

[1] = target: Macrophage colony-stimulating factor 1 receptor (Homo sapiens, UniProt P07333); test: Inhibition of human FMS at 10 uM using poly[Glu:Tyr] (4:1) as substrate measured after 120 mins in presence of [gamma33P]ATP by P81 ion exchange chromatographic method relative to control
[2] = Intrinsic clearance in mouse liver microsomes at 1 uM measured after 60 mins in presence of NADPH by LC-MS/MS analysis; assay type: ADME, microsome; conditions: read-out: CLH
[3] = target: T2, Tyrosine-protein kinase ITK/TSK (Homo sapiens, UniProt Q08881); test: Inhibition of human ITK using myelin basic protein as substrate measured after 120 mins in presence of [gamma33P]ATP by P81 ion exchange chromatographic method
T2 sequence (Q08881 whole entry): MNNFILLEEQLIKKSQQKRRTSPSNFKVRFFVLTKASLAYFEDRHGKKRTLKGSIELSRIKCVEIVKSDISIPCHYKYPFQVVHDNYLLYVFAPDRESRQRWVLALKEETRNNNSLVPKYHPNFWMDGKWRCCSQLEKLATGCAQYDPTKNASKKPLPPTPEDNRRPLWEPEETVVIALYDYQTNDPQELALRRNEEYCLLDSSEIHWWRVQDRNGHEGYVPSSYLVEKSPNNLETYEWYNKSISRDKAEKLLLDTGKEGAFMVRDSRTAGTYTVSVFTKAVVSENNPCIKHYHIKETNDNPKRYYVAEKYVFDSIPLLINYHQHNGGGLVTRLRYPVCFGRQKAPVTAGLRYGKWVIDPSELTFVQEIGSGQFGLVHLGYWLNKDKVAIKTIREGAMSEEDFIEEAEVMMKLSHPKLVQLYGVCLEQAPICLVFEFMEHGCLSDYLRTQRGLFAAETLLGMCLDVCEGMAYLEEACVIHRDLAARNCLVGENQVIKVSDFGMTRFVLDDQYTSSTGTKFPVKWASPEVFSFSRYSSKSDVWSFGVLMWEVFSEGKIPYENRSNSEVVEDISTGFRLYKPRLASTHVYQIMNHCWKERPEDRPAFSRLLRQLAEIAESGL

[4] = target: T3, Tyrosine-protein kinase Tec (Homo sapiens) (UniProt P42680); test: Inhibition of human TEC at 10 uM using poly[Glu:Tyr] (4:1) as substrate measured after 120 mins in presence of [gamma33P]ATP by P81 ion exchange chromatographic method relative to control
T3 sequence (whole entry): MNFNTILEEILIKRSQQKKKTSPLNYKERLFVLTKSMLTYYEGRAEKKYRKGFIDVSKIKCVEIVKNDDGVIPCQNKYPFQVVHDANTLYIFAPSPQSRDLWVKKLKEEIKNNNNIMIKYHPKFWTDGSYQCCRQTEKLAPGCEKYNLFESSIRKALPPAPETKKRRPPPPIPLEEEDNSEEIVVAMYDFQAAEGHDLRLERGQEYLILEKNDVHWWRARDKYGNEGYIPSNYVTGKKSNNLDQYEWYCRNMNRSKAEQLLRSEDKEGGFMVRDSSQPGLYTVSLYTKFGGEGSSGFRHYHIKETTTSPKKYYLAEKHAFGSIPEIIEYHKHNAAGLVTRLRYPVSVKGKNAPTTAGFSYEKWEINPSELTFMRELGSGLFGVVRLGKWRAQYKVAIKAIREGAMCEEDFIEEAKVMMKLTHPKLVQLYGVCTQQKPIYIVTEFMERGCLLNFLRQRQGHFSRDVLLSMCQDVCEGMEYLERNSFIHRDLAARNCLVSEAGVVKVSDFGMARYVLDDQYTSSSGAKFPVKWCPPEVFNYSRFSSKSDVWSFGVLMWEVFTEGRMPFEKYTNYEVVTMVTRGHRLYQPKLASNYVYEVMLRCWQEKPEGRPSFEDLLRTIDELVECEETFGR

[5] = Apparent permeability from apical to basolateral side in MDCK2-MDR1 cells at 2 uM after 2.5 hrs LC-MS/MS analysis; assay type: ADME, cell-based, Canis lupus familiaris; conditions: dog, MDCK-MDR1
[6] = Efflux ratio of apparent permeability from basolateral to apical over apical to basolateral side in MDCK2-MDR1 cells at 2 uM after 2.5 hrs LC-MS/MS analysis; assay type: ADME, cell-based, Canis lupus familiaris; conditions: dog, MDCK-MDR1
[7] = target: Fibroblast growth factor receptor 1 (Homo sapiens, UniProt P11362); test: Inhibition of recombinant human His-tagged FGFR1 cytoplasmic domain (308 to 731 residues) expressed in baculovirus expression system using tyr 04 as substrate measured within 60 mins by Z-LYTE assay
[8] = target: Fibroblast growth factor receptor 4 (Homo sapiens, UniProt P22455); test: Inhibition of recombinant human N-terminal His-tagged FGFR4 cytoplasmic domain […] expressed in baculovirus expression system using tyr 04 peptide as substrate measured within 90 mins by Z-LYTE assay
Plasma = test: Drug degradation in human plasma measured after 2 hrs by metabolite identification method; assay type: ADME, cell-free
[9] = Volume of distribution in Balb/c mouse at 0.2 mg/kg, iv administered as single bolus dose by LC-MS/MS analysis; assay type: ADME, organism-based; conditions: in vivo
[10] = Unbound plasma concentration in human at 2 uM measured after 4 hrs by LC-MS/MS analysis; assay type: ADME, cell-free
[11] = Unbound plasma concentration in rat at 2 uM measured after 4 hrs by LC-MS/MS analysis; assay type: ADME, cell-free

Macrophage colony-stimulating factor 1 receptor, sequence (P07333 whole entry): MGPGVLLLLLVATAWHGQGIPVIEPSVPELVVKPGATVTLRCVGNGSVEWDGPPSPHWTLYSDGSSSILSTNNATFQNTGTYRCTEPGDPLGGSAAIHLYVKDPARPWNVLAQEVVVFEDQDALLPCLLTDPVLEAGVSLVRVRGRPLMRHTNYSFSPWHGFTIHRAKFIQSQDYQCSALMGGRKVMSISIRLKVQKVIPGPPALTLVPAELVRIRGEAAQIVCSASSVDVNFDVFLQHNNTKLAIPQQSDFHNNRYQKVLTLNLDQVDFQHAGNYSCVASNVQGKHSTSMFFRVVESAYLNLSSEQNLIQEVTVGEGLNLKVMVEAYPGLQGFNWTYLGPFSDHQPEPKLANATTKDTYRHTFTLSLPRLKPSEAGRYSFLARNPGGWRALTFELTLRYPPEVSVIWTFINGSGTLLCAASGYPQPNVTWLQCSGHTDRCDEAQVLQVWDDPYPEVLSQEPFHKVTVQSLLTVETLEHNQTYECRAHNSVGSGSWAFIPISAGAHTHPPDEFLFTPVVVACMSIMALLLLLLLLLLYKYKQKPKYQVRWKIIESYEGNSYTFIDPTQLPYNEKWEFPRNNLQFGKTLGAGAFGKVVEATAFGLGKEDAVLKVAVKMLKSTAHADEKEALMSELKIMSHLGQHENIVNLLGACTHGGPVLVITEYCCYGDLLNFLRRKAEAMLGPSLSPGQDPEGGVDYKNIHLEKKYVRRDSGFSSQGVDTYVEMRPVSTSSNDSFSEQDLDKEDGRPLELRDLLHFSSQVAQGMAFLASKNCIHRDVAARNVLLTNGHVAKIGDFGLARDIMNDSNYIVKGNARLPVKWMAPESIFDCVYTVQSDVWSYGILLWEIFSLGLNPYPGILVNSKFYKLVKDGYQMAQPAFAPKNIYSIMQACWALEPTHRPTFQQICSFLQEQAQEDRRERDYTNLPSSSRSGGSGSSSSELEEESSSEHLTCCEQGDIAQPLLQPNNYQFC
Cytochrome P450 2D6, sequence (P10635 whole entry): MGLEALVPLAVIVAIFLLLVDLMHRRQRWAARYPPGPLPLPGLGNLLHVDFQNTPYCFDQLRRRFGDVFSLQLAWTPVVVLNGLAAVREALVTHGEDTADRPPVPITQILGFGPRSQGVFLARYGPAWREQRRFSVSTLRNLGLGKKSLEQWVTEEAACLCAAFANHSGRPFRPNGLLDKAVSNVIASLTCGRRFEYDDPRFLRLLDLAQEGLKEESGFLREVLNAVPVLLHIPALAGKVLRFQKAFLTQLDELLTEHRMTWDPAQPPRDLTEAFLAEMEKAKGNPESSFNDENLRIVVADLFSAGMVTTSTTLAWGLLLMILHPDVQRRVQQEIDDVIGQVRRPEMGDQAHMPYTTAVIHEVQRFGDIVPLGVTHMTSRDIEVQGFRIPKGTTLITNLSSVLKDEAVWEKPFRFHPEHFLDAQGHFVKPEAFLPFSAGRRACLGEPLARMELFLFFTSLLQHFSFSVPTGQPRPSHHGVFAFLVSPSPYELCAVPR
Cytochrome P450 2C9, sequence (P11712 whole entry): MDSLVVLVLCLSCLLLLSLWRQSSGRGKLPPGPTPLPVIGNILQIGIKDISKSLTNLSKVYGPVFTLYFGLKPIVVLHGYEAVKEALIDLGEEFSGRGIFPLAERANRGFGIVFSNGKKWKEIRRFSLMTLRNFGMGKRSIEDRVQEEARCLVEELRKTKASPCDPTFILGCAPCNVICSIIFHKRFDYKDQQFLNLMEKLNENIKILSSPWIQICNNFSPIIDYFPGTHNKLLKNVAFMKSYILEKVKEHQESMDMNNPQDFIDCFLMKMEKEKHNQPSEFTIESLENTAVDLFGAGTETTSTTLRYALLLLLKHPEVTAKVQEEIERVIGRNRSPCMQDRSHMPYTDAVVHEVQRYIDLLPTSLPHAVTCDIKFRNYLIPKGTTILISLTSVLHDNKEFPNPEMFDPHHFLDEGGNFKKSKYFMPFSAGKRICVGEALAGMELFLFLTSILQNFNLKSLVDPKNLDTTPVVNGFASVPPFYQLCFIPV
Fibroblast growth factor receptor 4, sequence (P22455 whole entry, the tested form may be a part): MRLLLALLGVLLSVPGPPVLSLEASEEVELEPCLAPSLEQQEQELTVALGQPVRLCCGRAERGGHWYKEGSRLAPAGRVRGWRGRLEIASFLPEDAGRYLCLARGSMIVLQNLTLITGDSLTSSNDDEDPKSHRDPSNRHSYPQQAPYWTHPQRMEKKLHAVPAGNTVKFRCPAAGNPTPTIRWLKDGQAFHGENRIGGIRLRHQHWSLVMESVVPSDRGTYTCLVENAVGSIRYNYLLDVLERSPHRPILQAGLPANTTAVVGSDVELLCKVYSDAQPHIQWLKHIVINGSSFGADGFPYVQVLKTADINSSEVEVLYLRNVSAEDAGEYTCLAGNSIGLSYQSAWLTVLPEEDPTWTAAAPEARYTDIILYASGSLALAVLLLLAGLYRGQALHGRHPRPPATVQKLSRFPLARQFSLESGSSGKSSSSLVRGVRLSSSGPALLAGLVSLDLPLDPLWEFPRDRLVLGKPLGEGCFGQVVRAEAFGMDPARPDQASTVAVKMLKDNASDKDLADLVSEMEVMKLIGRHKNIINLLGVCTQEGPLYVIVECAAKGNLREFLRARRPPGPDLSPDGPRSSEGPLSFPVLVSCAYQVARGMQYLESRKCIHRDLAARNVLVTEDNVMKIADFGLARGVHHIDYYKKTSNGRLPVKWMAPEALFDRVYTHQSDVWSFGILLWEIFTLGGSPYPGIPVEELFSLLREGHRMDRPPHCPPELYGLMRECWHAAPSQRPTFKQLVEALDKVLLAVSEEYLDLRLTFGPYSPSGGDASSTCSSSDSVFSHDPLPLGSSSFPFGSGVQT
Fibroblast growth factor receptor 1, sequence (P11362 whole entry, the tested form may be a part): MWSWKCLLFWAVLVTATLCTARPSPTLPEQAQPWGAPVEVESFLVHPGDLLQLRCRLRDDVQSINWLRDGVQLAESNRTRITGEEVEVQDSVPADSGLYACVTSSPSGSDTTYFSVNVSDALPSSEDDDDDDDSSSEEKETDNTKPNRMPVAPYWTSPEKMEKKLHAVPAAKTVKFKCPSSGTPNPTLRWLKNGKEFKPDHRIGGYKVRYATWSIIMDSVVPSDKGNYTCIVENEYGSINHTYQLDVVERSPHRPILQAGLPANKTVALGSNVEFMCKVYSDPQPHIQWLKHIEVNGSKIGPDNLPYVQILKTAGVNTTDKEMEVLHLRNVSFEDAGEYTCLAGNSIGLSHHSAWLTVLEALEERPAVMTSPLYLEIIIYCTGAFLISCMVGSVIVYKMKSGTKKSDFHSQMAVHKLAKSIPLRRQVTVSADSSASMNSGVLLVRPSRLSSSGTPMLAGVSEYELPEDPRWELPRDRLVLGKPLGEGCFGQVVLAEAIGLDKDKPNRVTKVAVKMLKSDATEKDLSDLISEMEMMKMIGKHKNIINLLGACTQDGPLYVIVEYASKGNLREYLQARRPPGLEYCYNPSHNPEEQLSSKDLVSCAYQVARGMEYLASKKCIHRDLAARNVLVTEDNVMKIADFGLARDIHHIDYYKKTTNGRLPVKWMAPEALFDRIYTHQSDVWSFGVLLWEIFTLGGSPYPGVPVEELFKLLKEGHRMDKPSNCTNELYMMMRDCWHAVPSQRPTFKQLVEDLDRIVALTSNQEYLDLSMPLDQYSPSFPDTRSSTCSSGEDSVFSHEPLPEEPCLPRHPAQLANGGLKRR

SMILES | IC50 (Cytochrome P450 2C9) | IC50 (Cytochrome P450 2D6) | IC50 (Cytochrome P450 1A2) | inhibition [1] | CLint scaled at 1 µM [2] | IC50 [3] | inhibition [4] | Papp A→B at 2.5 h, 2 µM [5] | efflux ratio at 2.5 h, 2 µM [6] | IC50 [7] | IC50 [8] | Drug degradation (Plasma) | Vd [9] | fraction unbound at 4 h, 2 µM [10] | fraction unbound at 4 h, 2 µM [11]
C=CC(=O)Nc1cccc(C)c1Nc1ncc2cc(-c3c(Cl)c(OC)cc(OC)c3Cl)ccc2n1 | 0.9 µM | 12.5 µM | 15.9 µM | 78% | 97 mL/min/kg | > 10 µM | -5% | 0.35 ×10⁻⁶ cm/s |  |  |  |  |  |  | 
C=CC(=O)Nc1cccc(C)c1Nc1ncc(OCc2c(F)c(OC)cc(OC)c2F)cn1 | 3.7 µM | 35 µM | > 50 µM | 4% | 9640 mL/min/kg | > 10 µM |  | 8.6 ×10⁻⁶ cm/s | 1 | 8.6 µM | 3 nM | 30% |  |  | 
C=CC(=O)N[C@H]1COC[C@H]1Nc1ncc(OCc2c(F)c(OC)cc(OC)c2F)cn1 | 29.1 µM | > 50 µM | > 50 µM | 6% | 474 mL/min/kg | > 10 µM | -1% | 7.3 ×10⁻⁶ cm/s | 3.8 | 3.5 µM | 13 nM |  | 0.58 L/kg | 0.354 | 0.309
